Data published in patent US20080319065A1, “Systemic and Intrathecal Effects of a Novel Series of Phospholipase A2 Inhibitors on Hyperalgesia and Spinal Pge2 Release” (The Regents of the University of California, priority 2005, published 2008).

What was measured:
[1] = biological target: T1, Group IVA cPLA2 (GIVA PLA2) (Homo sapiens, UniProt P47712); experiment: In vitro Group IVA cPLA2 mixed micelle assay; type: biochemical; details: for Group IVA XI(50) (mole fraction): Table 1b; for Inhibition of GIVA PLA2: at highest dose
T1 sequence (P47712 1-749): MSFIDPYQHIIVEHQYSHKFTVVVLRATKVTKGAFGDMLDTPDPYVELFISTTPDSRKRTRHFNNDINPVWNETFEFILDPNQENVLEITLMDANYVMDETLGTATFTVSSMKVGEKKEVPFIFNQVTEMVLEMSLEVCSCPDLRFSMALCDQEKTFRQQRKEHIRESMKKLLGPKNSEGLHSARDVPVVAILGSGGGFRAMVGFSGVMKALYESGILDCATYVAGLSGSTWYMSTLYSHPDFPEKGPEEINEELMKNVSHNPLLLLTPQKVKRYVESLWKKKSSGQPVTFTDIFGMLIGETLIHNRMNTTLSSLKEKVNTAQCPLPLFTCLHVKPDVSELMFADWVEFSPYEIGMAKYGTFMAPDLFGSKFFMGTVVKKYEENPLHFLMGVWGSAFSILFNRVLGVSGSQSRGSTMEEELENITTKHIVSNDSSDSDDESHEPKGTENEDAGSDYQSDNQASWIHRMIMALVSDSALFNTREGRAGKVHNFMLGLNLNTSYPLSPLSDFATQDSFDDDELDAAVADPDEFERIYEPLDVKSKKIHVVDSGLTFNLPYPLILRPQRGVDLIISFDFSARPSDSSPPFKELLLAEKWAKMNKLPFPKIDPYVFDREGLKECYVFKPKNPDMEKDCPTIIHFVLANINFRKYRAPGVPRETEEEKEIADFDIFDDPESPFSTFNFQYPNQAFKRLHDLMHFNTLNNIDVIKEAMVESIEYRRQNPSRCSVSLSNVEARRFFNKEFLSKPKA
Method: (§1) Numerous 2-oxoamides were tested for inhibition of PLA2s in in vitro assay systems. The data, summarized in Tables 1a, 1b and 2 are represented as XI(50) values unless otherwise noted. XI(50) is defined as the inhibitor concentration that produced 50% inhibition. XI(50) is used as opposed to the more common IC50 because GIVA and GVIA PLA2 are active at a two-dimensional lipid interface rather than in three-dimensional solution. (Deems, Anal. Biochem., 287:1-16, 2000). The 2-oxoamide inhibitors likely partition to the micelle interface and therefore must be represented as a percentage of surface concentration (mole fraction) as opposed to bulk concentration (molar units). (Kokotos, et al., J. Med. Chem., 45:2891-2893, 2002).
(§2) In vitro Group IV cPLA2 and Group VI iPLA2 assays were done as previously described (Kokotos, et al., supra, 2002). Briefly, 100 μM lipid substrate and 100,000 cpm radiolabeled analog were dried down under N2 and dissolved in assay buffer containing 400 μM Triton X-100 to yield a mixed micelle substrate solution. Inhibitors dissolved in DMSO were added to the reaction tubes and allowed to incubate with substrate for five minutes at 40° C. Pure enzyme was added to yield a final volume of 500 μl, and digestion was carried out at 40° C. for 30 minutes. Reactions were quenched and extracted using the Dole method and products were quantified by liquid scintillation counting. Percent inhibition was determined at a range of inhibitor mole fraction concentrations for XI(50) calculations.

[2] = biological target: T2, Group VIA iPLA2 (GVIA PLA2) (Homo sapiens, UniProt O60733); experiment: In vitro Group VIA iPLA2 mixed micelle assay; type: biochemical; details: for Inhibition of GVIA PLA2: at highest dose
T2 sequence (O60733 1-806): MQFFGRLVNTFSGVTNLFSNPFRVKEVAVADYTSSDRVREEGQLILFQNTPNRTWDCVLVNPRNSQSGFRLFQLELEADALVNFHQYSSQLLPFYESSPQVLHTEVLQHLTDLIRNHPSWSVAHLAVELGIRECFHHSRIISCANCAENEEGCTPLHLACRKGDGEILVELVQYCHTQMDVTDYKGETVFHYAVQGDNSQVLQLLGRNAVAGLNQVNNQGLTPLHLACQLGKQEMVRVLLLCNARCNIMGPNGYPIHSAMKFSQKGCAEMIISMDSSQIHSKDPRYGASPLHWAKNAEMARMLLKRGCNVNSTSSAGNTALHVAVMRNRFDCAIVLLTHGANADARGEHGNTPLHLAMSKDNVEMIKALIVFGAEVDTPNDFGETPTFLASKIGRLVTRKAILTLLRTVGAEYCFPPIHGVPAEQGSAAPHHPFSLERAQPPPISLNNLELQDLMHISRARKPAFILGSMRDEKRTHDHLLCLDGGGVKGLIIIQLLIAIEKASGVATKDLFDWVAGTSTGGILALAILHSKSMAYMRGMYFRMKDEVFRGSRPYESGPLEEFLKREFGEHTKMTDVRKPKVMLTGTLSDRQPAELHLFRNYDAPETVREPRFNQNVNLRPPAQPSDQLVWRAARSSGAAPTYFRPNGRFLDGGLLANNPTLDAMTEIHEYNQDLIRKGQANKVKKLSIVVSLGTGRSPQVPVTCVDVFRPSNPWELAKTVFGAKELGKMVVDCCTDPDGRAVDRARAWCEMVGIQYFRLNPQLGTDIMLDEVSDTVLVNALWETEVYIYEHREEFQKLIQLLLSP
Method: as §1, §2

spinal release of PGE2 = experiment: Intrathecal dialysis and PGE2 assay; type: in vivo, rat; details: 3 mg/kg IP pretreatment
Description: For spinal drug injections, lumbar catheters were implanted in rats under isoflurane anesthesia according to a modification of the procedure described by Yaksh (Yaksh and Rudy, supra, 1976). A polyethylene catheter (PE-5; Spectranetics, 0.014 in OD) was inserted into the intrathecal space and advanced to the rostral edge of the lumbar enlargement through an incision in the atlanto-occipital membrane. Five days after implantation rats were entered into the study. In separate experiments to assess spinal prostaglandins release, rats were prepared with lumbar loop dialysis catheters with three lumens, as previously described, see (Yaksh, et al., supra, 2001).
In brief, the outer two lumens were connected to a length of dialysis tubing (10 Kda cut off). The catheter was then implanted intrathecally using the same technique as described above for the intrathecal catheter. A three-day interval was allowed to elapse prior to including the animal in a study. In all cases, the exclusion criteria were i) presence of any neurological sequelae, ii) 20% weight loss after implantation, or iii) catheter occlusion.
Spinal dialysis experiments to define the spinal release of PGE2 were conducted in unanesthetized rats 3 days after dialysis catheter implantation. A syringe pump (Harvard, Natick, Mass.) was connected and dialysis tubing was perfused with artificial cerebro spinal fluid (ACSF) at a rate of 10 μl/min. The ACSF contained (mM) 151.1 Na^+, 2.6 K^+, 0.9 Mg^2+, 1.3 Ca^2+, 122.7 Cl^−, 21.0 HCO3, 2.5 HPO4 and 3.5 dextrose and was bubbled with 95% O2/5% CO2 before each experiment to adjust the final pH to 7.2. The efflux (20 min per fraction) was collected in an automatic fraction collector (Eicom, Kyoto, Japan) at 4° C. […] The concentration of PGE2 in spinal dialysate was measured by ELISA using a commercially available kit (Assay Designs 90001, Assay Designs, Ann Arbor, Mich.). The antibody is selective for PGE2 with less than 2.0% cross-reactivity to PGF1, PGF2, 6-ketoPGF1, PGA2 or PGB2, but cross-reacts with PGE1 and PGE3.

[3] = tested on: murine RAW 264.7 macrophage-like cell line; experiment: Long-term LPS stimulation, PGE2 release; type: cell-based; details: low μM range
Method: Several 2-oxoamides were tested in the long-term lipopolysaccharide (LPS) stimulation pathway in the murine RAW 264.7 macrophage-like cell line. (Raschke, et al., Cell, 1978, 15, 261-267). This pathway requires GIVA PLA2 activity and results in the extracellular release of many eicosanoid compounds including the prostaglandin PGE2. (Gijon, et al., leukoc. Biol., 1999, 65, 330-336). […] In the low μM range, AX041 and AX073 reduced PGE2 release by roughly 40% (FIG. 1(D)). At 1 μM and 5 μM concentrations, small activations were often seen. The in vitro and cellular results together are consistent with the known roles of GVIA PLA2 given that AX010, a selective GVIA inhibitor, had no cellular effect. […] Inhibitors selective for GIVA PLA2 or dual specificity inhibitors reduce PGE2 levels, also consistent with the known role of GIVA PLA2 in PGE2 production.

GV sPLA2 = biological target: T3, GV sPLA2 (Homo sapiens, UniProt P39877); experiment: GV sPLA2 activity assay; type: biochemical; details: at 0.091 mole fraction
T3 sequence (P39877 21-138): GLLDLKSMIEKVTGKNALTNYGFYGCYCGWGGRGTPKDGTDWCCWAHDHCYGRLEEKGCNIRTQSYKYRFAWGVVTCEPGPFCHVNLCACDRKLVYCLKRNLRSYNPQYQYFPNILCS
Method: GV sPLA2 activity was measured in a similar assay. The final assay buffer was composed of 50 mM Tris-HCl (pH 8.0) and 5 mM CaCl2. Each assay was performed in 500 μL total volume made up of 100 μL of 5× substrate solution (20 μL of 10 mM Triton X-100 and 80 μL assay buffer), 390 μL assay buffer, 10 μL GV sPLA2 solution (1 μL of 40 ng/μL stock and 9 μL assay buffer), and 5 μL of DMSO or 2-oxoamide in DMSO. The 5× substrate solution was prepared by drying down the phospholipids (in organic solvent) with N2. The appropriate volume of 10 mM Triton X-100 was added, heated and vortexed until clear. Then assay buffer was added to make a 5× substrate solution. The final mixed micelles were at 400 μM Triton X-100 and 100 μM DPPC (of which 100,000 cpm of ^14C-DPPC).

SMILES | inhibition of GIVA PLA2 (cPLA2), in words [1] | inhibition of GVIA PLA2 (iPLA2), in words [2] | Inhibition of GVIA PLA2 [2] | melting point [°C] | also measured
CCC(=O)C(=O)NCCCC(=O)O [AX006] | inhibit GIVA PLA2 | do not inhibit GVIA PLA2 | ND (negligible inhibition (0-25%) at highest dose) | – | Group IVA XI(50) (mole fraction) [1]: 0.024 ± 0.015 mole fraction; Group VIA XI(50), class ([2]; at 0.091 mole fraction): N.D. (25% inhibition or less at 0.091 mole fraction); IT SP-evoked release of PGE2 in spinal dialysate (spinal release of PGE2): significant increase as compared to vehicle only
COC(=O)CCCNC(=O)C(=O)CCCc1ccccc1 [AX037, 4-(2-Oxo-5-phenyl-pentanoylamino)-butyric acid methyl ester] | – | – | ND (negligible inhibition (0-25%) at highest dose) | 30 to 31 | Inhibition of GIVA PLA2 [1]: ND (negligible inhibition (0-25%) at highest dose)
COC(=O)CCCNC(=O)C(=O)CCCCc1ccccc1 [AX038, 4-(2-Oxo-6-phenyl-hexanoylamino)-butyric acid methyl ester] | – | – | ND (negligible inhibition (0-25%) at highest dose) | 52 to 54 | Inhibition of GIVA PLA2 [1]: ND (negligible inhibition (0-25%) at highest dose)
CCCCCCCCC=CCCCCCCCC(=O)C(=O)NCCCC(=O)O [AX040, 4-(2-Oxo-nonadec-10-enoylamino)-butyric acid] | inhibit GIVA PLA2 | do not inhibit GVIA PLA2 | ND (negligible inhibition (0-25%) at highest dose) | 57 to 59 | –
CCCCCCCCC=CCCCCCCCC(=O)C(=O)NCCCC(=O)OC [AX041, 4-(2-Oxo-nonadec-10-enoylamino)-butyric acid methyl ester] | – | – | – | – | reduction of PGE2 release [3]: roughly 40%
CCCCCCCCCCCCCCC(=O)C(=O)NCCCC(=O)OC(C)(C)C [AX057, tert-Butyl 4-[(2-oxohexadecanoyl)amino]butanoate] | – | – | – | 61 to 62 | Group IVA XI(50) (mole fraction) [1]: 0.031 ± 0.017 mole fraction; Group VIA XI(50) (mole fraction) ([2]; Table 1b): 0.026 ± 0.014 mole fraction; efficacy against sPLA2 (GV sPLA2): 76.7%; IT SP-evoked release of PGE2 in spinal dialysate (spinal release of PGE2): significant increase as compared to vehicle only
CCCCCCCCCCCCCCC(=O)C(=O)NC(C=CC(=O)O)CCCC (stereo not drawn) [AX074, 4-(2-Oxo-hexadecanoylamino)-oct-2-enoic acid] | inhibit GIVA PLA2 | do not inhibit GVIA PLA2 | ND (negligible inhibition (0-25%) at highest dose) | 65 to 67 | Inhibition of GIVA PLA2, XI(50) [1]: XI(50) =0.003 ± 0.001 mole fraction
